Laboratory results reported in publication PMC4170105 (Journal of nuclear medicine : official publication, Society …, 2013).
Like-named read-outs stand apart in the source and are kept apart here.

Key:
S1Rs [1] = biological target: T1, S1Rs (Rattus norvegicus, UniProt Q9R0C9); test: Blocking biodistribution in rats pretreated with S1R ligands; type: in vivo; conditions: pretreatment 1 mg/kg
S1Rs [2] = biological target: T1, S1Rs; test: Rat brain PET/CT imaging, baseline and BD1047 blocking; type: in vivo; conditions: BD1047 1 mg/kg i.v. 10 min before tracer; 50–60 min after injection
S1Rs [3] = conditions: cited from earlier work
S2Rs = conditions: no reference given, cited from earlier work
5-HT2 receptors = conditions: no reference given; cited from earlier work
[4] = Stability in human liver microsomes; type: in vitro ADME; conditions: errors SEM
[5] = cited from earlier work
S1Rs [6] = biological target: T1, S1Rs; test: Ex vivo autoradiography of rat brain and muscle sections; type: in vivo; conditions: baseline
S1Rs [7] = test system: S1Rs
[8] = monkey plasma
[9] = mouse liver microsomes; errors SEM; previously reported; cited from earlier work
[10] = Ex vivo stability in rat plasma and brain homogenates
[11] = Ex vivo biodistribution in rats; conditions: rat
[12] = 5 min after injection, i.v., n = 4

T1 sequence (Q9R0C9 whole entry): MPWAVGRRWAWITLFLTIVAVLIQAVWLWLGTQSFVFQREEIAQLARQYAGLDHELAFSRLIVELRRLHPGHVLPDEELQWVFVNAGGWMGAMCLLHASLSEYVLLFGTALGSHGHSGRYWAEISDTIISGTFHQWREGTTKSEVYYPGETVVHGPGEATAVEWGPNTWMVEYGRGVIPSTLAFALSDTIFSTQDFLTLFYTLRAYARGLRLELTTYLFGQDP

CN(C)CCN(C)CCc1ccc(Cl)c(Cl)c1 [BD1047]
radioactive signal in bone/skull of pretreated rats compared with baseline rats (S1Rs [1]; 60 min after injection): did not display this same trend
reduction in radiotracer binding in liver, pancreas, and heart (S1Rs [1]; P < 0.05, < 0.05, < 0.005): significant reduction
reduction in ^18F-FTC-146 accumulation in rat brain (PET/CT) (S1Rs [2]): 86%
Ki (S1Rs [3]; read-out: Ki for S1Rs, no reference given): 0.93 nM
fold lower affinity for S2Rs than for S1Rs (S2Rs): approximately 50 fold
Ki (S2Rs; read-out: Ki for S2Rs): 47 nM
affinity for 5-HT2 receptors (5-HT2 receptors): low micromolar affinity

O=c1sc2cc(CCCF)ccc2n1CCN1CCCCCC1 [FTC-146]
t1/2 [4]: 18.2 min

COc1ccc(CCN2CCN(CCCc3ccccc3)CC2)cc1OC [^11C-SA4503]
unchanged radioligand in monkey plasma ([5]; 90 min after injection): 31%

COc1cc(CCN2CCN(CCCc3ccccc3)CC2)ccc1OCC[18F] [^18F-FE-SA4503]
parent compound present in monkey plasma ([5]; 120 min after injection of tracer): 23%

O=c1sc2cc(CCCF)ccc2n1CCN1CCCCCC1 [^18F-FTC-146]
Ki (S1Rs [3]; read-out: affinity for S1Rs, in vitro binding): 0.0025 nM

O=c1sc2cc(CCC[18F])ccc2n1CCN1CCCCCC1 [^18F-FTC-146]
uptake in corpus callosum and muscle (autoradiography) (S1Rs [6]): little, if any, uptake
t1/2 [4]: 18.2 ± 3.6 min
average maximum uptake in all analyzed brain regions (S1Rs [7]; monkey, in vivo, 0.25 h): approximately 0.4 %ID/g
uptake in cerebellum (S1Rs [7]; monkey, in vivo, 1 h): 0.27 %ID/g
uptake in occipital cortex (S1Rs [7]; monkey, in vivo, 1 h): 0.27 %ID/g
uptake in striatum (S1Rs [7]; monkey, in vivo, 1 h): 0.20 %ID/g
brain uptake level after gradual washout (S1Rs [7]; monkey, in vivo, 2 h): approximately 0.25 %ID/g
intact ^18F-FTC-146 in plasma ([8]; 5 min): 60%
intact ^18F-FTC-146 in plasma ([8]; 15 min): 35%
intact parent tracer in plasma (lower plateau) ([8]; between 50 and 110 min): 15%
t1/2 [9]: 4.2 ± 0.6 min
percentage intact radiotracer in plasma ([10]; 15 min after injection): 27.1% ± 5.3%
percentage intact radiotracer in plasma ([10]; 30 min after injection): 25.3% ± 1.3%
percentage intact radiotracer in plasma ([10]; 60 min after injection): 19.5% ± 4.4%
time of peak uptake in the brain [11]: 15 min
uptake in kidney [11, 12]: 2.14 ± 0.29 %ID/g
uptake in lung [11, 12]: 4.91 ± 0.63 %ID/g
uptake in pancreas [11, 12]: 1.58 ± 0.21 %ID/g
uptake in spleen [11, 12]: 1.34 ± 0.35 %ID/g
decrease of accumulation in the lungs ([11]; from 5 to 60 min after injection): 75%
uptake in blood and muscle ([11]; throughout the duration of the study): Negligible uptake
washout of radiotracer uptake in pancreas, liver, and spleen ([11]; throughout the study (5-60 min)): did not significantly wash out

O=C(CCCN1CCC(O)(c2ccc(Cl)cc2)CC1)c1ccc(F)cc1 [haloperidol, reference compound]
decrease of ^18F-FTC-146 binding in occipital cortex (S1Rs [7]; haloperidol 0.1 mg/kg 10 min before radioligand, 60–75 min after injection): 53%
